Laboratory results taken from patent US20240150848A1, “METHODS AND SYSTEMS FOR DIAGNOSIS, CLASSIFICATION, AND TREATMENT OF SMALL CELL LUNG CANCER AND OTHER HIGH-GRADE NEUROENDOCRINE CARCINOMAS” (BOARD OF REGENTS, THE UNIVERSITY OF TEXAS SYSTEM, priority 2021, published 2024).

Tested on: SCLC-A and SCLC-N cell lines
Test: Comparison of IC50 values between cell lines assigned to SCLC-A and SCLC-N by the methylation classifier (SCLC-DMC)
Assay type: cell-based
Source text: FIGS. 22A-22D show comparison of IC50 values for the BCL2i ABT-737 (FIG. 22A) and the AURKi CYC-116 (FIG. 22B) between cell lines assigned to SCLC-A and SCLC-N using SCLC-DMC. Clinical outcome depending on classification method used. Overall survival of ES-SCLC patients stratified by classification using the RNAseq signature or SCLC-DMC for SCLC-A (FIG. 22C) and SCLC-N(FIG. 22D). The box plot is highlighting the median as well as the 25th and 75th percentile in the box extended by 1.5× the IQR with bars. […] To validate that these same vulnerabilities are preserved using the methylation classifier (FIG. 30), the inventors compared IC50 values for over 400 drugs^24 between methylation-assigned SCLC-A and SCLC-N subtypes and identified numerous distinct vulnerabilities between the groups.

Compound	sensitivity by comparison of IC50 values (methylation-assigned SCLC-A cell lines compared with SCLC-N cell lines (FIG. 22A))	sensitivity by comparison of IC50 values (methylation-assigned SCLC-N cell lines compared with SCLC-A cell lines (FIG. 22B))
CN(C)CC[C@H](CSc1ccccc1)Nc1ccc(S(=O)(=O)NC(=O)c2ccc(N3CCN(Cc4ccccc4-c4ccc(Cl)cc4)CC3)cc2)cc1[N+](=O)[O-] [ABT-737]	more sensitive	–
Cc1nc(N)sc1-c1ccnc(Nc2ccc(N3CCOCC3)cc2)n1 [CYC-116]	–	more sensitive
